This is an account of results in ChEMBL document CHEMBL3045962, “Synthesis and antitumor evaluation of some novel pyrrolizine derivatives” (Med Chem Res, 2012).

The assay relates to MCF7. Briefly: Cytotoxicity against Homo sapiens (human) MCF7 cells after 48 hr by neutral red assay. Type of assay: functional, cell-based.
The term IC50 denotes the concentration that inhibits the measured activity by half. A lower IC50 goes with inhibition by little substance. For `N=C1C2=C3CCCN3C(O)(N3CCOCC3)C2NC(=O)N1c1ccc(Cl)cc1` (stereo not drawn), the IC50 was determined as 37 µM.
In turn, `O=C1NC=NC2C1=C1CCCN1C2(O)N1CCOCC1` (stereo not drawn) showed a half-inhibitory concentration (IC50) of 30 µM.
For `CC(=O)CC(=O)NC1C(C#N)=C2CCCN2C1(O)N1CCOCC1` (stereo not drawn) the value was 22 µM; for `CN(C)c1ccc(C2SCC(=O)N2C2C(C#N)=C3CCCN3C2(O)N2CCOCC2)cc1` (stereo not drawn), 19 µM; for `N#CC1=C2CCCN2C(O)(N2CCOCC2)C1/N=C/NNC(=O)c1ccccc1` (stereo not drawn), 18 µM.
For `C/C(CC(=O)c1ccccc1)=N\C1C(C#N)=C2CCCN2C1(O)N1CCOCC1` (stereo not drawn) the value was 28 µM.
`O=C(NC1=NC=NC2C1=C1CCCN1C2(O)N1CCOCC1)c1ccccc1` (stereo not drawn) displayed a half-inhibitory concentration (IC50) of 21 µM.
In the case of `CC(=O)NC1C(C#N)=C2CCCN2C1(O)N1CCOCC1` (stereo not drawn), the IC50 was 29 µM.
As to `CCNC(=S)NC1C(C#N)=C2CCCN2C1(O)N1CCOCC1` (stereo not drawn), the IC50 worked out at 37 µM.
Turning to `CN(C)c1ccc(/C=N/C2C(C#N)=C3CCCN3C2(O)N2CCOCC2)cc1` (stereo not drawn), the IC50 is 37 µM.
Take `N#CC1=C2CCCN2C(O)(N2CCOCC2)C1N1C(=O)CSC1c1ccc(Cl)cc1` (stereo not drawn): the concentration for half-maximal inhibition (IC50) amounted to 18 µM.
As to `N#CC1=C2CCCN2C(O)(N2CCOCC2)C1/N=C/N` (stereo not drawn), the IC50 worked out at 26 µM.
`COc1ccc(/C=N/C2C(C#N)=C3CCCN3C2(O)N2CCOCC2)cc1` (stereo not drawn): the IC50 came out at 16 µM.
`CC(=O)C/C(C)=N/C1C(C#N)=C2CCCN2C1(O)N1CCOCC1` (stereo not drawn) showed an IC50 of 42 µM.
`N#CC1=C2CCCN2C(O)(N2CCOCC2)C1NC(=O)Nc1ccccc1` (stereo not drawn) came in with an IC50 of 44 µM.
For `CC(=O)C1=C(N)C2=C3CCCN3C(O)(N3CCOCC3)C2NC1=O` (stereo not drawn), the half-maximal inhibitory concentration (IC50) was found to be 29 µM.
Take `CC(=O)NC1=NC=NC2C1=C1CCCN1C2(O)N1CCOCC1` (stereo not drawn): the IC50 came out at 29 µM.
Consider `O=C1NC(c2ccccc2)=NC2C1=C1CCCN1C2(O)N1CCOCC1` (stereo not drawn), for which the IC50 turned out to be 16 µM.
`CC1=NC2C(=C3CCCN3C2(O)N2CCOCC2)C(=O)N1` (stereo not drawn) displayed an IC50 of 36 µM.
In turn, `CC(=O)C1=C(N)C2=C3CCCN3C(O)(N3CCOCC3)C2N=C1C` (stereo not drawn) showed a half-maximal inhibitory concentration (IC50) of 38 µM.
Consider `COc1cccc2c1C(=O)c1c(O)c3c(c(O)c1C2=O)C[C@@](O)(C(=O)CO)C[C@@H]3O[C@H]1C[C@H](N)[C@H](O)[C@H](C)O1` [DOXORUBICIN], for which the 50% inhibitory concentration (IC50) came to 63 µM.
For `CCOC=NC1C(C#N)=C2CCCN2C1(O)N1CCOCC1` (stereo not drawn), the IC50 was determined as 41 µM.
With `O=C1NC(NNC(=O)c2ccncc2)=NC2C1=C1CCCN1C2(O)N1CCOCC1` (stereo not drawn), the IC50 came to 20 µM.
The compound `N#CC1=C2CCCN2C(O)(N2CCOCC2)C1N1C(=O)CSC1c1ccc([N+](=O)[O-])cc1` (stereo not drawn) registered an IC50 of 55 µM.
For `NC1=NC=NC2C1=C1CCCN1C2(O)N1CCOCC1` (stereo not drawn) the value was 35 µM; for `O=C(CCl)NC1=NC=NC2C1=C1CCCN1C2(O)N1CCOCC1` (stereo not drawn), 23 µM; for `CCOC(=O)NC1C(C#N)=C2CCCN2C1(O)N1CCOCC1` (stereo not drawn), 27 µM.
In turn, `O=C1NC(NNC(=O)c2ccccc2)=NC2C1=C1CCCN1C2(O)N1CCOCC1` (stereo not drawn) yielded an IC50 of 19 µM.
In turn, `N=C1C2=C3CCCN3C(O)(N3CCOCC3)C2NC(=O)N1c1ccccc1` (stereo not drawn) had an IC50 of 18 µM.
For `N#CC1=C2CCCN2C(O)(N2CCOCC2)C1/N=C/c1ccc(Cl)cc1` (stereo not drawn) the value was 45 µM; for `N#CC1=C2CCCN2C(O)(N2CCOCC2)C1NC(=O)CCl` (stereo not drawn), 23 µM; for `COc1ccc(C2SCC(=O)N2C2C(C#N)=C3CCCN3C2(O)N2CCOCC2)cc1` (stereo not drawn), 35 µM.
As for `N#CC1=C2CCCN2C(O)(N2CCOCC2)C1/N=C/c1ccc([N+](=O)[O-])cc1` (stereo not drawn), the IC50 turned out to be 19 µM.
For `N#CC1=C2CCCN2C(O)(N2CCOCC2)C1N` (stereo not drawn), the IC50 was 35 µM.
For `N#CC1=C2CCCN2C(O)(N2CCOCC2)C1/N=C/NNC(=O)c1ccncc1` (stereo not drawn) the value was 29 µM; for `CCOC(=O)NC1=NC=NC2C1=C1CCCN1C2(O)N1CCOCC1` (stereo not drawn), 25 µM; for `CCN1C(=N)C2=C3CCCN3C(O)(N3CCOCC3)C2NC1=S` (stereo not drawn), 34 µM.
For `N#CC1=C2CCCN2C(O)(N2CCOCC2)C1NC(=O)c1ccccc1` (stereo not drawn) the value was 34 µM.
